Assay results published in article PMC2991053 (Chemistry & biology, 2010).
Where two headings read alike, the source gives them in different places.

Key:
TfIMPDH = TfIMPDH (Tritrichomonas foetus, UniProt P50097); details: cited from earlier work; for Ki: TfIMPDH, ref Riera, et al., 2008
HpIMPDH = target: T1, HpIMPDH (Helicobacter pylori, UniProt P56088); experiment: IMPDH inhibition, H. pylori enzyme; assay type: biochemical
T1 sequence (P56088 1-481): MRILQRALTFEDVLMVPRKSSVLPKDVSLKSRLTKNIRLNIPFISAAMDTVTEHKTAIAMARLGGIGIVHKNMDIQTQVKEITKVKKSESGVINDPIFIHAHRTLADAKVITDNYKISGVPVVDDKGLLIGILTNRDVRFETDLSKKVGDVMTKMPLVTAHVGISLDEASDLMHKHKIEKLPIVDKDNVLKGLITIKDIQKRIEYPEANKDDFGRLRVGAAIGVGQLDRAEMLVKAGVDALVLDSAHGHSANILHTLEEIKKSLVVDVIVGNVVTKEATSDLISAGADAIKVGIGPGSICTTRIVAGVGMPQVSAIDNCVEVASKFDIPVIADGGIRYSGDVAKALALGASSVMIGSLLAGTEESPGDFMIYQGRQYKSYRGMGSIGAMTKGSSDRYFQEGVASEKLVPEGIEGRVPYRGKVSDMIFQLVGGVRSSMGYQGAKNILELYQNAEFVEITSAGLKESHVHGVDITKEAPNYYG

BbIMPDH = target: T2, BbIMPDH (Borreliella burgdorferi, UniProt P49058); experiment: IMPDH inhibition, B. burgdorferi enzyme; assay type: biochemical
T2 sequence (P49058 1-404): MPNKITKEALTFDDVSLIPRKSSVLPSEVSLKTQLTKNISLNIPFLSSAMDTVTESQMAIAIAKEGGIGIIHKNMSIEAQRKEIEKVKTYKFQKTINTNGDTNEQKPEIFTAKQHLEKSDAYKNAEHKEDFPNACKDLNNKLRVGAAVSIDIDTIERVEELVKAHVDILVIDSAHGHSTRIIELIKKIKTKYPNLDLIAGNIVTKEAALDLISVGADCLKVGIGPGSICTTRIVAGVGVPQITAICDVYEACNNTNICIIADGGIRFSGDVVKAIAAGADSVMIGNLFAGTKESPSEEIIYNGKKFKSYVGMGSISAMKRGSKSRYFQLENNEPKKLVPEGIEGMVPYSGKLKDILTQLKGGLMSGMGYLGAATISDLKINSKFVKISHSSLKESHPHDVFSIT

SpIMPDH = SpIMPDH (Streptococcus pyogenes, UniProt P0C0H6); experiment: biochemical
Chain of SpIMPDH (P0C0H6 whole entry): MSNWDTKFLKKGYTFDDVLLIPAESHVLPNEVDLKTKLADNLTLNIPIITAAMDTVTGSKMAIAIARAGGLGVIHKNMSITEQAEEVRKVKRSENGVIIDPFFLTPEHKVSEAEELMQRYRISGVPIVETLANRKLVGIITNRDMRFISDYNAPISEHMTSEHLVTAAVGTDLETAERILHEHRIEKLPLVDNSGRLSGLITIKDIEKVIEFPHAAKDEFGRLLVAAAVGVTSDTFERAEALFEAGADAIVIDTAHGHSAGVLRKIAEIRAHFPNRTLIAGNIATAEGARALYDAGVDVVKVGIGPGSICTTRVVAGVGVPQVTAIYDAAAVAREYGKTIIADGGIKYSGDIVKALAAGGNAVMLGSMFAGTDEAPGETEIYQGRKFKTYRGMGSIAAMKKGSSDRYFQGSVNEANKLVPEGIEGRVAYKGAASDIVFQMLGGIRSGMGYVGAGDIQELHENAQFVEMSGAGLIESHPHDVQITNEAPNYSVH

EcIMPDH-S250A/L444Y = EcIMPDH-S250A/L444Y (Escherichia coli, UniProt P0ADG7, L444Y/S250A); experiment: biochemical
Chain of EcIMPDH-S250A/L444Y (P0ADG7 whole entry S250A/L444Y): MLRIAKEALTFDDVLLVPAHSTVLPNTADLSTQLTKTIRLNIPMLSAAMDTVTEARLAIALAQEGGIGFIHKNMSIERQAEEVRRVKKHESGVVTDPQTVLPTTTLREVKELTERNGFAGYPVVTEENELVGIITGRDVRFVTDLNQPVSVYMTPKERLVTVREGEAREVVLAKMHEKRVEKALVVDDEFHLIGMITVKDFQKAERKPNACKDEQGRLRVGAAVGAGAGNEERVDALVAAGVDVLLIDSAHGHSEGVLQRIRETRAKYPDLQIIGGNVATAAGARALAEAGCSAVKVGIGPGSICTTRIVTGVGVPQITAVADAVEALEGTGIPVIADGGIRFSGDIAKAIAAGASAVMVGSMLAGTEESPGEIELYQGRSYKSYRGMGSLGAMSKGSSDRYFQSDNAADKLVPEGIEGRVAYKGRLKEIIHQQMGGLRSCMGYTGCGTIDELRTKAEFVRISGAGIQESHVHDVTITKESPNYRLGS

EcIMPDH = EcIMPDH (Escherichia coli, UniProt P0ADG7); experiment: IMPDH inhibition, E. coli enzyme; assay type: biochemical
Chain of EcIMPDH (P0ADG7 whole entry): as the sequence (P0ADG7 whole entry S250A/L444Y) above, with A250S, Y444L counted along it

LdIMPDH = LdIMPDH (Leishmania donovani, UniProt P21620); experiment: IMPDH inhibition, L. donovani enzyme; assay type: biochemical
Chain of LdIMPDH (P21620 whole entry): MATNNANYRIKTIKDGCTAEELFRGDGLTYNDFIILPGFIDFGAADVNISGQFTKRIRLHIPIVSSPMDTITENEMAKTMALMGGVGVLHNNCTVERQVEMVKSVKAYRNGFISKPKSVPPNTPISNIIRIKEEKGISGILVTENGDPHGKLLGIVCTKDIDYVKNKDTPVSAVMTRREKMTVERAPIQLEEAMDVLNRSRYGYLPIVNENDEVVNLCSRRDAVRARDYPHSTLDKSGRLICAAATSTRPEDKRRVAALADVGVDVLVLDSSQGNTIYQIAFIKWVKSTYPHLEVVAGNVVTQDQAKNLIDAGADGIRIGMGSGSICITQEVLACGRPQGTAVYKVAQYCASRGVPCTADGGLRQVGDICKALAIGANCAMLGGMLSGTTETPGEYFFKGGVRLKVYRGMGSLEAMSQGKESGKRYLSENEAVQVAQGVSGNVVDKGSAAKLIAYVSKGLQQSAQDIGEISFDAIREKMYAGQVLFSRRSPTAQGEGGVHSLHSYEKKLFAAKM

EcIMPDH-S250A = EcIMPDH-S250A (Escherichia coli, UniProt P0ADG7, S250A); experiment: biochemical
Chain of EcIMPDH-S250A (P0ADG7 whole entry S250A): as the sequence (P0ADG7 whole entry S250A/L444Y) above, with Y444L counted along it

CpIMPDH = target: T3, CpIMPDH (Cryptosporidium parvum, UniProt Q8T6T2); details: cited from earlier work
T3 sequence (Q8T6T2 1-400): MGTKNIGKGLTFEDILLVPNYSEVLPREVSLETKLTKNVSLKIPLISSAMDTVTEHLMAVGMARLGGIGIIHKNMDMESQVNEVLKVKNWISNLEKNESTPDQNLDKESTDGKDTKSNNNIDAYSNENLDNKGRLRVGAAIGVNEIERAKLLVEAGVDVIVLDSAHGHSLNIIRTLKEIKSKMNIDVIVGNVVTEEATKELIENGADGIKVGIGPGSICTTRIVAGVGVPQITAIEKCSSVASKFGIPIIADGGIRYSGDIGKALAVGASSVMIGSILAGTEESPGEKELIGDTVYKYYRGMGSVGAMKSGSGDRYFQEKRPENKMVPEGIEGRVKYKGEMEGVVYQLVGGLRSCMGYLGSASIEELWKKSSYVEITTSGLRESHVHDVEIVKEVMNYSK

Chain of TfIMPDH (P50097 whole entry): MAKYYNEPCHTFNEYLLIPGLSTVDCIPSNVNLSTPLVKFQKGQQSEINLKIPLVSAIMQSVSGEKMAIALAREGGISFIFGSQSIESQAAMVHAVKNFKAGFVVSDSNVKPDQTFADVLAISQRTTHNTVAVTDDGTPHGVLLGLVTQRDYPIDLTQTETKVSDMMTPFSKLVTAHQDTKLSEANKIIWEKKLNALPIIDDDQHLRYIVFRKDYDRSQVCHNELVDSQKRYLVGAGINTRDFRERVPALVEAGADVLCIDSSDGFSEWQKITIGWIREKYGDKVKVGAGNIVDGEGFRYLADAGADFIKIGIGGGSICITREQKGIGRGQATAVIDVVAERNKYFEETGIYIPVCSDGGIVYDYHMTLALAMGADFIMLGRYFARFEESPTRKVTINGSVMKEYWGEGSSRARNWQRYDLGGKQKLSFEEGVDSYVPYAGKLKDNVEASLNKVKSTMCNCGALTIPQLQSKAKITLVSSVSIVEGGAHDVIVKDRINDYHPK

**Q.** Which “Fold more resistant than human IMPDH2 (TfIMPDH)” value (TfIMPDH; TfIMPDH vs human IMPDH2, ref Digits and Hedstrom, 2000) does the source give for `COc1c(C)c2c(c(O)c1C/C=C(\C)CCC(=O)O)C(=O)OC2` [mycophenolic acid] here?
**A.** Its value is 400 fold.

**Q.** Which Ki (HpIMPDH) does the source give for `NC(=O)c1csc([C@@H]2O[C@H](CO)[C@@H](O)[C@H]2O)n1` [Tzf, tiazofurin] here?
**A.** The Ki was 1.3 ± 0.1 mM.

**Q.** What about the Ki (BbIMPDH) of the same compound?
**A.** The Ki was 1.1 ± 0.2 mM.

**Q.** And the Ki (SpIMPDH)?
**A.** The Ki was 8 ± 1 mM.

**Q.** What about the Ki (EcIMPDH-S250A/L444Y) of the same compound?
**A.** Its Ki is 1.1 ± 0.2 mM.

**Q.** What about the Ki (EcIMPDH) of the same compound?
**A.** Its Ki is 5.3 ± 0.6 mM.

**Q.** What about the Ki (LdIMPDH) of the same compound?
**A.** The Ki was 8.3 ± 0.7 mM.

**Q.** What about the Ki (EcIMPDH-S250A) of the same compound?
**A.** The Ki was 2.5 ± 0.3 mM.

**Q.** And the Ki (CpIMPDH; read-out: Ki Tzf, ref Riera, et al., 2008)?
**A.** Its Ki is 1.5 ± 0.1 mM.

**Q.** And the Ki (TfIMPDH; read-out: Ki Tzf)?
**A.** Its Ki is 69 ± 9 mM.

**Q.** With `Nc1ncnc2c1ncn2[C@@H]1O[C@H](COP(=O)(O)OP(=O)(O)O)[C@@H](O)[C@H]1O` [ADP] as the compound, how does the Ki (HpIMPDH; read-out: Ki ADP, HpIMPDH) read?
**A.** The Ki was 6 ± 0.5 mM.

**Q.** And the Ki (BbIMPDH; read-out: Ki ADP, BbIMPDH)?
**A.** Its Ki is 7.4 ± 0.6 mM.

**Q.** What about the Ki (SpIMPDH; read-out: Ki ADP, SpIMPDH) of the same compound?
**A.** The Ki was 13 ± 2 mM.

**Q.** What about the Ki (EcIMPDH-S250A/L444Y; read-out: Ki ADP, EcIMPDH-S250A/L444Y) of the same compound?
**A.** The Ki was 4.1 ± 0.7 mM.

**Q.** What about the Ki (EcIMPDH; read-out: Ki ADP, EcIMPDH) of the same compound?
**A.** Its Ki is 10 ± 2 mM.

**Q.** What about the Ki (LdIMPDH; read-out: Ki ADP, LdIMPDH) of the same compound?
**A.** Its Ki is 15 ± 2 mM.

**Q.** What about the Ki (EcIMPDH-S250A; read-out: Ki ADP, EcIMPDH-S250A) of the same compound?
**A.** The Ki was 0.1 ± 0.01 mM.

**Q.** What about the Ki (CpIMPDH; read-out: Ki ADP, ref Riera, et al., 2008) of the same compound?
**A.** The Ki was 42 ± 6 mM.

**Q.** What about the Ki (TfIMPDH; read-out: Ki ADP) of the same compound?
**A.** Its Ki is 31 ± 2 mM.
